In patent US4837399A, “Napthoquinone antibiotics from fuserium solani” (The United States of America as represented by the …, priority 1988, dated 1989):
Converted amounts (≈) assume the structure as drawn.

Legend:
Format in all cases: cell-based
Streptococcus pyogenes = assay: Broth microdilution assay, Streptococcus pyogenes; settings: for MIC: B = Streptococcus pyogenes, complete suppression of microbial growth, read-out: Antibacterial activity (MIC)
Method: (§1) Purified compounds were tested for antibiotic activity by dissolving in dimethyl sulfoxide and utilizing a standard broth microdilution assay. The smallest amount of compound resulting in complete inhibition of bacterial growth is the minimum inhibitory concentration (MIC).
(§2) The organisms used in the tests were three strains of gram-positive bacteria: Staphylococcus aureus, Streptococcus pyogenes, and a strain of Staphylococcus aureus which was resistant to the antibiotic methicillin.
(§3) Antimicrobial activity of compounds was determined against a group of bacterial pathogens, using a broth microdilution assay.Pathogens tested included Staphylococcus aureus, Streptococcus pyogenes, Escherichia coli, Serratia marcescens, Proteus vulgaris, Klebsiella pneumoniae, Salmonella typhi, and Pseudomonas aeruginosa. Activity against plant pathogenic bacteria was tested by applying acetone solutions of compounds to 14 mm Whatman No. 1 filter paper discs, drying and placing four discs/plate on freshly inoculated Kings medium B plates. Pseudomonas cepacia, P. cichorii, P. fluorescens, P. syringae pv. phaseolicola, P. viridiflava, and Xanthomonas campestris were exposed to discs containing 20 μg of compound; Curtobacterium flaccumfaciens pv. poinsettiae (formerly Corynebacterium poinsettiae) was tested at 20, 40, and 80 μg/disc. Using a similar assay procedure, Alternaria citri, Colletotrichum gloeosporioides, Diplodia natalensis, Fusarium solani, F. oxysporum, Geotrichum candidium, Phomopsis citri, and Phytophthora parasitica were tested to determine the antifungal properties of the compounds.

[1] = system: Staphylococcus aureus 95 (resistant to methicillin); assay: Broth microdilution assay, Staphylococcus aureus 95 (resistant to methicillin)
Method: as §1, §2

Staphylococcus aureus = assay: Broth microdilution assay, Staphylococcus aureus; settings: for MIC: A = Staphylococcus aureus, complete suppression of microbial growth, read-out: Antibacterial activity (MIC)
Method: as §1, §2, §3

gram-positive bacteria = assay: Broth microdilution assay, gram-positive bacteria overall
Method: as §1, §2
as §3, with “Using a similar assay procedure, Alternaria citri, Colletotrichum gloeosporioides, Diplodia natalensis, Fusarium solani, F. oxysporum, Geotrichum candidium, Phomopsis citri, and Phytophthora parasitica were tested to determine the antifungal properties of the compounds.” left out

[2] = system: Curtobacterium flaccumfaciens pv. poinsettiae; assay: Filter paper disc assay, Curtobacterium flaccumfaciens pv. poinsettiae; settings: 20, 40, and 80 μg/disc, Kings medium B plates
Method: as §3
They were, however, effective against gram-positive bacteria.

## COc1cc(O)c2c(c1O)C(=O)C(CC(C)O)C(CO)C2=O (stereo not drawn) [Compound 1, 2,3-Dihydro-5,8-dihydroxy-6-methoxy-2-hydroxymethyl-3-(2-hydroxypropyl)-1,4-naphthalenedione]
Streptococcus pyogenes
  preference for control of Streptococcus pyogenes (in words): preferred
  MIC: 0.5 µg/mL (≈ 1.61 µM)
[1]
  preference for control of Staphylococcus aureus 95 (in words): preferred
[1]; C = Staphylococcus aureus 95 (resistant to methicillin), complete suppression of microbial growth, read-out: Antibacterial activity (MIC)
  MIC: 4 µg/mL (≈ 12.9 µM)
Staphylococcus aureus
  effectiveness in control of Staphylococcus aureus (in words): most effective
  MIC: 1 µg/mL (≈ 3.22 µM)
gram-positive bacteria
  effectiveness against gram-positive bacteria (in words): the most effective
gram-positive bacteria; read-out: inhibiting growth
  MIC: 0.5 to 1 µg/mL (≈ 1.61 to 3.22 µM)

## COC1=CC(=O)c2c(O)c(CO)c3c(c2C1=O)OC(C)C3 (stereo not drawn) [Compound 2, 2,3-Dihydro-5-hydroxy-4-hydroxymethyl-8-methoxy-2-methyl-naphtho [1,2-b]furan-6,9-dione]
Streptococcus pyogenes
  MIC: 64 µg/mL (≈ 220 µM)
Staphylococcus aureus
  effectiveness in control of Staphylococcus aureus (in words): most effective
  MIC: 4 µg/mL (≈ 13.8 µM)
[2]
  ranking of activity against Curtobacterium flaccumfaciens pv. poinsettiae: most active

## COC1=CC(=O)c2c(O)c(CO)c(CC(C)O)c(O)c2C1=O (stereo not drawn) [Compound 3, 5,8-Dihydroxy-2-methoxy-6-hydroxymethyl-7-(2-hydroxypropyl)-1,4-naphthalenedione]
Streptococcus pyogenes
  MIC: 64 µg/mL (≈ 208 µM)
Staphylococcus aureus
  MIC: 1 µg/mL (≈ 3.24 µM)
[2]
  ranking of activity against Curtobacterium flaccumfaciens pv. poinsettiae: followed by 1 and 3
